Source: US20120058989A1, “ANTIBACTERIAL FLUOROQUINOLONE ANALOGS” (Achaogen, Inc., priority 2008, published 2012)

Tests used:
Test in all cases: MIC, CLSI broth microdilution
Format in all cases: cell-based
[1] = tested on: S. aureus ASAU1031 (Fluoroquinolone-resistant)
Procedure, shortened: (§1)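 CLSI M7-A7 broth microdilution in Mueller Hinton Broth using two-fold compound serial dilutions. Inoculum was prepared from the previous day's agar colonies at a final 5×10^5 CFU/mL. Plates were incubated at 35° C for 20 hours in ambient air.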

[2] = tested on: S. pneumoniae ASPN001 (Fluoroquinolone-susceptible, ATCC49619)
Procedure, shortened: as §1

[3] = tested on: S. pneumoniae ASPN002 (Fluoroquinolone-susceptible, ATCC10813); conditions: Table 3
Procedure, shortened: as §1

[4] = tested on: E. coli AECO086 (Fluoroquinolone-resistant); conditions: Table 3
Procedure, shortened: as §1

[5] = tested on: P. aeruginosa APAE001 (Fluoroquinolone-susceptible, ATCC27853)
Procedure, shortened: as §1

[6] = tested on: S. aureus ASAU002 (Fluoroquinolone-susceptible, ATCC33591 (MRSA)); conditions: Table 3
Procedure, shortened: as §1

[7] = tested on: P. aeruginosa APAE002 (Fluoroquinolone susceptible); conditions: Table 3
Procedure, shortened: as §1

[8] = tested on: S. pneumoniae ASPN1027 (Fluoroquinolone-resistant)
Procedure, shortened: as §1

[9] = tested on: S. pneumoniae ASPN1018 (Fluoroquinolone-resistant); conditions: Table 3
Procedure, shortened: as §1

[10] = tested on: A. baumannii AABA1009 (Fluoroquinolone-resistant); conditions: Table 2
Procedure, shortened: as §1

[11] = tested on: A. baumannii AABA1065 (Fluoroquinolone-susceptible)
Procedure, shortened: as §1

[12] = tested on: E. coli AECO002 (Fluoroquinolone susceptible); conditions: Table 3
Procedure, shortened: as §1

[13] = tested on: S. aureus ASAU1033 (Fluoroquinolone-resistant); conditions: Table 3
Procedure, shortened: as §1

[14] = tested on: A. baumannii AABA1020 (Fluoroquinolone-resistant); conditions: Table 3
Procedure, shortened: as §1

[15] = tested on: E. coli AECO066 (Fluoroquinolone-resistant)
Procedure, shortened: as §1

[16] = tested on: P. aeruginosa APAE054 (Fluoroquinolone-resistant)
Procedure, shortened: as §1

[17] = tested on: E. coli AECO001 (Fluoroquinolone susceptible, ATCC25922)
Procedure, shortened: as §1

[18] = tested on: S. aureus ASAU001 (Fluoroquinolone-susceptible, ATCC29213)
Procedure, shortened: as §1

Row | Compound | MIC ASAU 1031 ([1]; Table 2) | MIC ASAU 1031 ([1]; Table 3) | MIC ASPN 001 ([2]; Table 2) | MIC ASPN 001 ([2]; Table 3) | MIC ASPN002 [3] | MIC AECO086 [4] | MIC APAE 001 ([5]; Table 2) | MIC APAE 001 ([5]; Table 3) | MIC ASAU002 [6] | MIC APAE002 [7] | MIC ASPN 1027 ([8]; Table 2) | MIC ASPN 1027 ([8]; Table 3) | MIC ASPN1018 [9] | MIC AABA 1009 [10] | MIC AABA 1065 ([11]; Table 2) | MIC AABA 1065 ([11]; Table 3) | MIC AECO002 [12] | MIC ASAU1033 [13] | MIC AABA1020 [14] | MIC AECO 066 ([15]; Table 2) | also measured
1 | N[C@@H]1C[C@H]2CCCc3c(c(F)cc4c(=O)c(C(=O)O)cn(C5CC5)c34)N2C1.O=C(O)C(F)(F)F [7D/39, (7aR,9R)-9-Amino-4-cyclopropyl-12-fluoro-1-oxo-4,5,6,7,7a,8,9,10-octahydro-1H-pyrrolo[1′,2′:1,7]-azepino[2,3-h]quinoline-2-carboxylic acid trifluoroacetate] | C (MIC's of greater than 8.0 μg/mL = C) | D (MIC's of greater than 8.0 μg/mL = D) | B (MIC's of greater than 1.0 μg/mL to 8.0 μg/mL = B) | B (MIC's of 1.0 μg/mL to 2.0 μg/mL = B) | B (MIC's of 1.0 μg/mL to 2.0 μg/mL = B) | D (MIC's of greater than 8.0 μg/mL = D) | B (MIC's of greater than 1.0 μg/mL to 8.0 μg/mL = B) | C (MIC's of 2.0 μg/mL to 8.0 μg/mL = C) | A (MIC's of less than 1.0 = A) | B (MIC's of 1.0 μg/mL to 2.0 μg/mL = B) | C (MIC's of greater than 8.0 μg/mL = C) | D (MIC's of greater than 8.0 μg/mL = D) | D (MIC's of greater than 8.0 μg/mL = D) | C (MIC's of greater than 8.0 μg/mL = C) | A (MIC's of 1.0 μg/mL or less = A) | A (MIC's of less than 1.0 = A) | A (MIC's of less than 1.0 = A) | D (MIC's of greater than 8.0 μg/mL = D) | D (MIC's of greater than 8.0 μg/mL = D) | C (MIC's of greater than 8.0 μg/mL = C) | MIC AECO 066 ([15]; Table 3): D (MIC's of greater than 8.0 μg/mL = D); MIC APAE 054 ([16]; Table 2): C (MIC's of greater than 8.0 μg/mL = C); MIC APAE 054 ([16]; Table 3): D (MIC's of greater than 8.0 μg/mL = D); MIC AECO 001 ([17]; Table 2, 35° C., 20 hours): A (MIC's of 1.0 μg/mL or less = A); MIC AECO 001 ([17]; Table 3): A (MIC's of less than 1.0 = A); MIC ASAU 001 ([18]; Table 2): A (MIC's of 1.0 μg/mL or less = A); MIC ASAU 001 ([18]; Table 3): A (MIC's of less than 1.0 = A)
2 | N[C@@H]1C[C@H]2CC=Cc3c(c(F)cc4c(=O)c(C(=O)O)cn(C5CC5)c34)N2C1.O=C(O)C(F)(F)F [7D/40, (7aR,9R)-9-Amino-4-cyclopropyl-12-fluoro-1-oxo-4,7,7a,8,9,10-hexahydro-1H-pyrrolo[1′,2′:1,7]-azepino[2,3-h]quinoline-2-carboxylic acid trifluoroacetate] | C (MIC's of greater than 8.0 μg/mL = C) | D (MIC's of greater than 8.0 μg/mL = D) | B (MIC's of greater than 1.0 μg/mL to 8.0 μg/mL = B) | B (MIC's of 1.0 μg/mL to 2.0 μg/mL = B) | B (MIC's of 1.0 μg/mL to 2.0 μg/mL = B) | D (MIC's of greater than 8.0 μg/mL = D) | B (MIC's of greater than 1.0 μg/mL to 8.0 μg/mL = B) | B (MIC's of 1.0 μg/mL to 2.0 μg/mL = B) | A (MIC's of less than 1.0 = A) | B (MIC's of 1.0 μg/mL to 2.0 μg/mL = B) | C (MIC's of greater than 8.0 μg/mL = C) | D (MIC's of greater than 8.0 μg/mL = D) | D (MIC's of greater than 8.0 μg/mL = D) | C (MIC's of greater than 8.0 μg/mL = C) | A (MIC's of 1.0 μg/mL or less = A) | A (MIC's of less than 1.0 = A) | A (MIC's of less than 1.0 = A) | D (MIC's of greater than 8.0 μg/mL = D) | D (MIC's of greater than 8.0 μg/mL = D) | C (MIC's of greater than 8.0 μg/mL = C) | MIC AECO 066 ([15]; Table 3): D (MIC's of greater than 8.0 μg/mL = D); MIC APAE 054 ([16]; Table 2): C (MIC's of greater than 8.0 μg/mL = C); MIC APAE 054 ([16]; Table 3): D (MIC's of greater than 8.0 μg/mL = D); MIC AECO 001 ([17]; Table 2, 35° C., 20 hours): A (MIC's of 1.0 μg/mL or less = A); MIC AECO 001 ([17]; Table 3): A (MIC's of less than 1.0 = A); MIC ASAU 001 ([18]; Table 2): A (MIC's of 1.0 μg/mL or less = A); MIC ASAU 001 ([18]; Table 3): A (MIC's of less than 1.0 = A)
3 | N[C@@H]1C[C@@H]2CCCc3c(c(F)cc4c(=O)c(C(=O)O)cn(C5CC5)c34)N2C1.O=C(O)C(F)(F)F [7E/49, (7aS,9R)-9-Amino-4-cyclopropyl-12-fluoro-1-oxo-4,5,6,7,7a,8,9,10-octahydro-1H-pyrrolo[1′,2′:1,7]-azepino[2,3-h]quinoline-2-carboxylic acid trifluoroacetate] | C (MIC's of greater than 8.0 μg/mL = C) | D (MIC's of greater than 8.0 μg/mL = D) | C (MIC's of greater than 8.0 μg/mL = C) | D (MIC's of greater than 8.0 μg/mL = D) | D (MIC's of greater than 8.0 μg/mL = D) | D (MIC's of greater than 8.0 μg/mL = D) | C (MIC's of greater than 8.0 μg/mL = C) | D (MIC's of greater than 8.0 μg/mL = D) | C (MIC's of 2.0 μg/mL to 8.0 μg/mL = C) | D (MIC's of greater than 8.0 μg/mL = D) | C (MIC's of greater than 8.0 μg/mL = C) | D (MIC's of greater than 8.0 μg/mL = D) | C (MIC's of 2.0 μg/mL to 8.0 μg/mL = C) | C (MIC's of greater than 8.0 μg/mL = C) | C (MIC's of greater than 8.0 μg/mL = C) | D (MIC's of greater than 8.0 μg/mL = D) | D (MIC's of greater than 8.0 μg/mL = D) | D (MIC's of greater than 8.0 μg/mL = D) | D (MIC's of greater than 8.0 μg/mL = D) | C (MIC's of greater than 8.0 μg/mL = C) | MIC AECO 066 ([15]; Table 3): D (MIC's of greater than 8.0 μg/mL = D); MIC APAE 054 ([16]; Table 2): C (MIC's of greater than 8.0 μg/mL = C); MIC APAE 054 ([16]; Table 3): D (MIC's of greater than 8.0 μg/mL = D); MIC AECO 001 ([17]; Table 2, 35° C., 20 hours): C (MIC's of greater than 8.0 μg/mL = C); MIC AECO 001 ([17]; Table 3): D (MIC's of greater than 8.0 μg/mL = D); MIC ASAU 001 ([18]; Table 2): B (MIC's of greater than 1.0 μg/mL to 8.0 μg/mL = B); MIC ASAU 001 ([18]; Table 3): C (MIC's of 2.0 μg/mL to 8.0 μg/mL = C)
4 | NC1C[C@@H]2CC=Cc3c(c(F)cc4c(=O)c(C(=O)O)cn(C5CC5)c34)N2C1.O=C(O)C(F)(F)F (stereo partly drawn) [7E/50, (7aS,9)-9-Amino-4-cyclopropyl-12-fluoro-1-oxo-4,7,7a,8,9,10-hexahydro-1H-pyrrolo[1′,2′:1,7]-azepino[2,3-h]quinoline-2-carboxylic acid trifluoroacetate] | C (MIC's of greater than 8.0 μg/mL = C) | D (MIC's of greater than 8.0 μg/mL = D) | B (MIC's of greater than 1.0 μg/mL to 8.0 μg/mL = B) | C (MIC's of 2.0 μg/mL to 8.0 μg/mL = C) | C (MIC's of 2.0 μg/mL to 8.0 μg/mL = C) | D (MIC's of greater than 8.0 μg/mL = D) | C (MIC's of greater than 8.0 μg/mL = C) | D (MIC's of greater than 8.0 μg/mL = D) | C (MIC's of 2.0 μg/mL to 8.0 μg/mL = C) | D (MIC's of greater than 8.0 μg/mL = D) | B (MIC's of greater than 1.0 μg/mL to 8.0 μg/mL = B) | C (MIC's of 2.0 μg/mL to 8.0 μg/mL = C) | C (MIC's of 2.0 μg/mL to 8.0 μg/mL = C) | C (MIC's of greater than 8.0 μg/mL = C) | C (MIC's of greater than 8.0 μg/mL = C) | D (MIC's of greater than 8.0 μg/mL = D) | D (MIC's of greater than 8.0 μg/mL = D) | D (MIC's of greater than 8.0 μg/mL = D) | D (MIC's of greater than 8.0 μg/mL = D) | C (MIC's of greater than 8.0 μg/mL = C) | MIC AECO 066 ([15]; Table 3): D (MIC's of greater than 8.0 μg/mL = D); MIC APAE 054 ([16]; Table 2): C (MIC's of greater than 8.0 μg/mL = C); MIC APAE 054 ([16]; Table 3): D (MIC's of greater than 8.0 μg/mL = D); MIC AECO 001 ([17]; Table 2, 35° C., 20 hours): B (MIC's of greater than 1.0 μg/mL to 8.0 μg/mL = B); MIC AECO 001 ([17]; Table 3): C (MIC's of 2.0 μg/mL to 8.0 μg/mL = C); MIC ASAU 001 ([18]; Table 2): C (MIC's of greater than 8.0 μg/mL = C); MIC ASAU 001 ([18]; Table 3): D (MIC's of greater than 8.0 μg/mL = D)
